Assays:
Type in all cases: cell-based
[1] = target: T1, EGFR L858R (BaF3-L858R cells) (Homo sapiens, UniProt P00533, L858R); test: Cell degradation of EGFR, HTRF assay, BaF3-L858R cells; settings: 16 h treatment; for DC50: EGFR degradation; for Dmax: maximum percentage of degradation
T1 construct: host or cells: BaF3
Procedure, shortened: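 EGFR L858R levels measured by HTRF antibody pair in lysed BaF3-L858R cells after 16 h compound exposure (8-point 5-fold series from 10 uM final, 37° C). Degradation is relative to DMSO-only cells; DC50 fitted with Hill equation, Dmax taken as the largest percent loss.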

[2] = target: T2, EGFR-L858R/C797S (H1975-clone #8 cells) (Homo sapiens, UniProt P00533, C797S/L858R); test: Cell degradation of EGFR, HTRF assay, H1975-clone#8 (L858R/C797S) cells; settings: 16 h treatment; for DC50: EGFR degradation; for Dmax: maximum percentage of degradation
T2 construct: expressed in transfected cells; host or cells: H1975 (endogenous EGFR knocked out, clone #8)

[3] = target: T3, p-EGFR L858R (BaF3-L858R cells) (Homo sapiens, UniProt P00533, L858R); test: Cell p-EGFR inhibition assay, HTRF, BaF3-L858R cells; settings: 16 h treatment; for Imax (%): maximum percentage of pEGFR inhibition; for IC50: pEGFR inhibition
T3 construct: host or cells: BaF3
Procedure, shortened: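 BaF3-L858R cells treated 16 h at 37 °C, 5% CO2 with compound from 10 uM top, 5-fold dilutions, 8 doses, in 0.1% DMSO medium. Lysates read overnight by HTRF p-EGFR antibodies; IC50 fitted to four-parameter curve against DMSO high control.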

[4] = target: p-EGFR Del19/C797S (H1975-clone #23 cells) (Homo sapiens, UniProt P00533); test: Cell p-EGFR inhibition assay, HTRF, H1975-clone#23 (DEL19/C797S) cells; settings: 16 h treatment; for Imax (%): maximum percentage of pEGFR inhibition; for IC50: pEGFR inhibition
Procedure, shortened: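 Phospho-EGFR read by overnight HTRF on lysates, normalized to DMSO-treated high control; IC50, Hill slope and Imax fitted. Compounds were applied for 16 h (10 uM top, 5-fold steps, 8 doses) to an H1975 single clone carrying only exogenous Del19/C797S EGFR after sgRNA knockout of endogenous copies.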

Row | Structure (SMILES) | DC50 [1] | Dmax [1] | DC50 [2] | Dmax [2] | Imax (%) [3] | IC50 [3] | Imax (%) [4] | IC50 [4]
1 | Cc1cc2cc(n1)-c1c(C)nn(C)c1OC[C@H]1CC[C@H](C1)CN1/C(=N/C2=O)Nc2ccc(N3CC4CCC3CN4C3CCN(c4cc(F)c([C@H]5CCC(=O)NC5=O)c(F)c4)CC3)cc21 [Example 193, (3R)-3-(2,6-difluoro-4-(4-(5-((7^1R,7^3S,E)-1^1,1^3,2^6-trimethyl-3-oxo-5^2,5^3-dihydro-1^1H,5^1H-9-oxa-4-aza-5(2,1)-benzo[d]imidazola-2(2,4)-pyridina-1(4,5)-pyrazola-7(1,3)-cyclopentanacyclononaphane-5^6-yl)-2,5-diazabicyclo[2.2.2]octan-2-yl)piperidin-1-yl)phenyl)piperidine-2,6-dione] | 7.4 nM | 76.2% | 0.76 nM | 70.8% | 101.04% | 2.35 nM | 100.43% | 2.74 nM
2 | Cc1cc2cc(n1)-c1c(C)nn(C)c1OC[C@H]1CC[C@H](C1)CN1/C(=N/C2=O)Nc2ccc(N3[C@@H](C)CN(C4CCN(c5cc(F)c([C@H]6CCC(=O)NC6=O)c(F)c5)CC4)C[C@@H]3C)cc21 [Example 198, (R)-3-(4-(4-((3S,5S)-3,5-dimethyl-4-((7^1R,7^3S,E)-1^1,1^3,2^6-trimethyl-3-oxo-5^2,5^3-dihydro-1^1H,5^1H-9-oxa-4-aza-5(2,1)-benzo[d]imidazola-2(2,4)-pyridina-1(4,5)-pyrazola-7(1,3)-cyclopentanacyclononaphane-5^6-yl)piperazin-1-yl)piperidin-1-yl)-2,6-difluorophenyl)piperidine-2,6-dione] | 7.56 nM | 89.7% | 4.41 nM | 100% | 101.37% | 6.66 nM | 102.48% | 3.18 nM
3 | Cc1cc2cc(n1)-c1c(C)nn(C)c1OC[C@H]1CC[C@H](C1)CN1/C(=N/C2=O)Nc2ccc(N3CCN(CC4CN(c5cc(F)c([C@H]6CCC(=O)NC6=O)c(F)c5)C4)CC3)cc21 [Example 199, (R)-3-(2,6-difluoro-4-(3-((4-((7^1R,7^3S,E)-1^1,1^3,2^6-trimethyl-3-oxo-5^2,5^3-dihydro-1^1H,5^1H-9-oxa-4-aza-5(2,1)-benzo[d]imidazola-2(2,4)-pyridina-1(4,5)-pyrazola-7(1,3)-cyclopentanacyclononaphane-5^6-yl)piperazin-1-yl)methyl)azetidin-1-yl)phenyl)piperidine-2,6-dione] | 6.02 nM | 82.5% | 2.28 nM | 91.8% | 99.05% | < 0.128 nM | 102.91% | 2.92 nM
4 | Cc1cc2cc(n1)-c1c(C)nn(C)c1OC[C@H]1CC[C@H](C1)CN1/C(=N/C2=O)Nc2ccc(N3CCN(C4CCN(c5cc(F)c([C@H]6CCC(=O)NC6=O)c(F)c5)CC4)C[C@H]3CF)cc21 [Example 202, (R)-3-(2,6-difluoro-4-(4-((S)-3-(fluoromethyl)-4-((7R,7^3S,E)-1^1,1^3,2^6-trimethyl-3-oxo-5^2,5^3-dihydro-1^1H,5^1H-9-oxa-4-aza-5(2,1)-benzo[d]imidazola-2(2,4)-pyridina-1(4,5)-pyrazola-7(1,3)-cyclopentanacyclononaphane-5^6-yl)piperazin-1-yl)piperidin-1-yl)phenyl)piperidine-2,6-dione] | 1.06 nM | 92.5% | 4.8 nM | 87.9% | 92% | 9.25 nM | 100.52% | 2.48 nM
5 | Cc1cc2cc(n1)-c1c(C)nn(C)c1OC[C@H]1CC[C@H](C1)CN1/C(=N/C2=O)Nc2ccc(N3CCN(CC4CN(c5cc(F)c([C@H]6CCC(=O)NC6=O)c(F)c5)C4)[C@H](C(F)F)C3)cc21 [Example 205, (R)-3-(4-(3-(((S)-2-(difluoromethyl)-4-((7R,7^3S,E)-1^1,1^3,2^6-trimethyl-3-oxo-5^2,5^3-dihydro-1^1H,5^1H-9-oxa-4-aza-5(2,1)-benzo[d]imidazola-2(2,4)-pyridina-1(4,5)-pyrazola-7(1,3)-cyclopentanacyclononaphane-5^6-yl)piperazin-1-yl)methyl)azetidin-1-yl)-2,6-difluorophenyl)piperidine-2,6-dione] | 5.75 nM | 90.3% | 3.05 nM | 85.8% | 92.5% | 1.22 nM | 99.83% | 0.539 nM

The remaining lines, values ahead:

Row | DC50 [1] | Dmax [1] | DC50 [2] | Dmax [2] | Imax (%) [3] | IC50 [3] | Imax (%) [4] | IC50 [4] | Structure (SMILES)
6 | 2.42 nM | 87.9% | 1.01 nM | 88.8% | 89.34% | 1.53 nM | 99.96% | 1.39 nM | Cc1cc2cc(n1)-c1c(C)nn(C)c1OC[C@H]1CC[C@H](C1)CN1/C(=N/C2=O)Nc2ccc(N3CCN(C4CCN(c5cc(F)c([C@H]6CCC(=O)NC6=O)c(F)c5)CC4)[C@H](C)C3)cc21 [Example 192, (R)-3-(2,6-difluoro-4-(4-((R)-2-methyl-4-((7^1R,7^3S,E)-1^1,1^3,2^6-trimethyl-3-oxo-5^2,5^3-dihydro-1^1H,5^1H-9-oxa-4-aza-5(2,1)-benzo[d]imidazola-2(2,4)-pyridina-1(4,5)-pyrazola-7(1,3)-cyclopentanacyclononaphane-5^6-yl)piperazin-1-yl)piperidin-1-yl)phenyl)piperidine-2,6-dione]
7 | 1.83 nM | 90.9% | 1.13 nM | 93.9% | 90.34% | < 0.128 nM | 99.96% | 1.44 nM | Cc1cc2cc(n1)-c1c(C)nn(C)c1OC[C@H]1CC[C@H](C1)CN1/C(=N/C2=O)Nc2ccc(N3CCN(C4CCN(c5cc(F)c([C@H]6CCC(=O)NC6=O)c(F)c5)CC4)C[C@@H]3C)cc21 [Example 195, (R)-3-(2,6-difluoro-4-(4-((S)-3-methyl-4-((7^1R,7^3S,E)-1^1,1^3,2^6-trimethyl-3-oxo-5^2,5^3-dihydro-1^1H,5^1H-9-oxa-4-aza-5(2,1)-benzo[d]imidazola-2(2,4)-pyridina-1(4,5)-pyrazola-7(1,3)-cyclopentanacyclononaphane-5^6-yl)piperazin-1-yl)piperidin-1-yl)phenyl)piperidine-2,6-dione]
8 | 1.61 nM | 91.9% | 3.21 nM | 88.8% | 85.84% | 3.09 nM | 99.76% | 2.81 nM | Cc1cc2cc(n1)-c1c(C)nn(C)c1OC[C@H]1CC[C@H](C1)CN1/C(=N/C2=O)Nc2ccc(N3C[C@@H](C)N(C4CCN(c5cc(F)c([C@H]6CCC(=O)NC6=O)c(F)c5)CC4)C[C@H]3C)cc21 [Example 196, (R)-3-(4-(4-((2R,5R)-2,5-dimethyl-4-((7^1R,7^3S,E)-1^1,1^32^6-trimethyl-3-oxo-5^2,5^3-dihydro-1^1H,5^1H-9-oxa-4-aza-5(2,1)-benzo[d]imidazola-2(2,4)-pyridina-1(4,5)-pyrazola-7(1,3)-cyclopentanacyclononaphane-5^6-yl)piperazin-1-yl)piperidin-1-yl)-2,6-difluorophenyl)piperidine-2,6-dione]
9 | 8.79 nM | 74% | 7.24 nM | 89.7% | 101.23% | 9.16 nM | 103.49% | 3.38 nM | Cc1cc2cc(n1)-c1c(C)nn(C)c1OC[C@H]1CC[C@H](C1)CN1/C(=N/C2=O)Nc2ccc(N3C[C@H](C)N(C4CCN(c5cc(F)c([C@H]6CCC(=O)NC6=O)c(F)c5)CC4)C[C@@H]3C)cc21 [Example 197, (R)-3-(4-(4-((2S,5S)-2,5-dimethyl-4-((7^1R,7^3S,E)-1^1,1^3,2^6-trimethyl-3-oxo-5^2,5^3-dihydro-1^1H,5^1H-9-oxa-4-aza-5(2,1)-benzo[d]imidazola-2(2,4)-pyridina-1(4,5)-pyrazola-7(1,3)-cyclopentanacyclononaphane-5^6-yl)piperazin-1-yl)piperidin-1-yl)-2,6-difluorophenyl)piperidine-2,6-dione]
10 | 2.1 nM | 85.7% | 1.87 nM | 94.6% | 98.42% | < 0.128 nM | 102.89% | 1.79 nM | Cc1cc2cc(n1)-c1c(C)nn(C)c1OC[C@H]1CC[C@H](C1)CN1/C(=N/C2=O)Nc2ccc(N3C[C@@H](C)N(C4CCN(c5cc(F)c([C@H]6CCC(=O)NC6=O)c(F)c5)CC4)C[C@@H]3C)cc21 [Example 200, (R)-3-(4-(4-((2R,5S)-2,5-dimethyl-4-((7^1R,7^3S,E)-1^1,1^3,2^6-trimethyl-3-oxo-5^2,5^3-dihydro-1^1H,5^1H-9-oxa-4-aza-5(2,1)-benzo[d]imidazola-2(2,4)-pyridina-1(4,5)-pyrazola-7(1,3)-cyclopentanacyclononaphane-5^6-yl)piperazin-1-yl)piperidin-1-yl)-2,6-difluorophenyl)piperidine-2,6-dione]
